{"source": "patent US20250186437A1", "about": "“CARBOLINE COMPOUNDS AND USE THEREOF” (PTC Therapeutics, Inc., priority 2021, published 2025)", "note": "pIC50: −log10 of the molar value.", "data": [{"test_system": "MOLM-13 cells", "test": "MOLM-13 Cell Proliferation Assay (indicator of DHODH inhibition)", "type": "cell-based", "details": "Homo sapiens, 72 Hours of culture, CellTiter-Glo, no uridine", "method_in_brief": "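Proliferation readout via CellTiter-Glo luminescence after 72 h compound treatment (37 °C, 5% CO2, 0.5% DMSO) of MOLM-13 cells seeded at 10^4 per well in RPMI 1640/10% FBS, used as a DHODH-inhibition indicator since these cells rely on de novo pyrimidine synthesis.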", "values": [{"smiles": "FC(F)(F)c1cc(C(F)(F)F)nc(N2CCc3c([nH]c4ccc(-n5nccn5)cc34)C2c2cnc(N3CCOCC3)nc2)n1", "note": "(centres unmarked) [Compound 482, 2-[4,6-bis(trifluoromethyl)pyrimidin-2-yl]-1-[2-(morpholin-4-yl)pyrimidin-5-yl]-6-(2H-1,2,3-triazol-2-yl)-2,3,4,9-tetrahydro-1H-pyrido[3,4-b]indole]", "pIC50": 9.10}, {"smiles": "Cc1cnn(-c2ccc3[nH]c4c(c3c2)CCN(c2nc(C(F)(F)F)cc(C(F)(F)F)n2)C4c2cnc(N3CCOCC3)nc2)n1", "note": "(centres unmarked) [Compound 483, 2-[4,6-bis(trifluoromethyl)pyrimidin-2-yl]-6-(4-methyl-2H-1,2,3-triazol-2-yl)-1-[2-(morpholin-4-yl)pyrimidin-5-yl]-2,3,4,9-tetrahydro-1H-pyrido[3,4-b]indole]", "pIC50": 8.07}, {"smiles": "CN1CCN(c2ncc([C@H]3c4[nH]c5ccc(Cl)cc5c4CCN3c3nccc(C(F)(F)F)n3)cn2)CC1", "note": "[Compound 484, (1S)-6-chloro-1-[2-(4-methylpiperazin-1-yl)pyrimidin-5-yl]-2-[4-(trifluoromethyl)pyrimidin-2-yl]-2,3,4,9-tetrahydro-1H-pyrido[3,4-b]indole]", "pIC50": 8.59}, {"smiles": "FC(F)(F)c1cc(C(F)(F)F)nc(N2CCc3c([nH]c4ccc(-n5nccn5)cc34)[C@@H]2c2ccc(N3CCOCC3)nc2)n1", "note": "[Compound 485, (1S)-2-[4,6-bis(trifluoromethyl)pyrimidin-2-yl]-1-[6-(morpholin-4-yl)pyridin-3-yl]-6-(2H-1,2,3-triazol-2-yl)-2,3,4,9-tetrahydro-1H-pyrido[3,4-b]indole]", "pIC50": 9.22}, {"smiles": "FC(F)(F)c1nc(N2CCc3c([nH]c4ccc(-n5nccn5)cc34)[C@@H]2c2ccc(N3CCOCC3)nc2)nc(C(F)(F)F)n1", "note": "[Compound 486, (1S)-2-[4,6-bis(trifluoromethyl)-1,3,5-triazin-2-yl]-1-[6-(morpholin-4-yl)pyridin-3-yl]-6-(2H-1,2,3-triazol-2-yl)-2,3,4,9-tetrahydro-1H-pyrido[3,4-b]indole]", "pIC50": 9.40}, {"smiles": "FC(F)(F)c1cc(C(F)(F)F)nc(N2CCc3c([nH]c4ccc(Br)cc34)[C@@H]2c2ccc(N3CCOCC3)nc2)n1", "note": "[Compound 487, (1S)-2-[4,6-bis(trifluoromethyl)pyrimidin-2-yl]-6-bromo-1-[6-(morpholin-4-yl)pyridin-3-yl]-2,3,4,9-tetrahydro-1H-pyrido[3,4-b]indole]", "pIC50": 9.70}, {"smiles": "CN1CCN(c2ncc([C@H]3c4[nH]c5ccc(Cl)cc5c4CCN3c3ncnc(C(F)(F)F)n3)cn2)CC1", "note": "[Compound 488, (1S)-6-chloro-1-[2-(4-methylpiperazin-1-yl)pyrimidin-5-yl]-2-[4-(trifluoromethyl)-1,3,5-triazin-2-yl]-2,3,4,9-tetrahydro-1H-pyrido[3,4-b]indole]", "pIC50": 8.28}, {"smiles": "CSc1nc(N2CCc3c([nH]c4ccc(Cl)cc34)[C@@H]2c2ccc(N3CCN(C)CC3)nc2)nc(C(F)(F)F)n1", "note": "[Compound 489, (1S)-6-chloro-1-[6-(4-methylpiperazin-1-yl)pyridin-3-yl]-2-[4-(methylsulfanyl)-6-(trifluoromethyl)-1,3,5-triazin-2-yl]-2,3,4,9-tetrahydro-1H-pyrido[3,4-b]indole]", "pIC50": 8.80}, {"smiles": "Cc1ccc(C2c3[nH]c4ccc(F)cc4c3CCN2c2nc(C(F)(F)F)cc(C(F)(F)F)n2)c(F)c1F", "note": "(centres unmarked) [Compound 490, 2-[4,6-bis(trifluoromethyl)pyrimidin-2-yl]-1-(2,3-difluoro-4-methylphenyl)-6-fluoro-2,3,4,9-tetrahydro-1H-pyrido[3,4-b]indole]", "pIC50": 8.55}, {"smiles": "CN1CCN(c2ccc([C@H]3c4[nH]c5ccc(Cl)cc5c4CCN3c3ncnc(C(F)(F)F)n3)cn2)CC1", "note": "[Compound 491, (1S)-6-chloro-1-[6-(4-methylpiperazin-1-yl)pyridin-3-yl]-2-[4-(trifluoromethyl)-1,3,5-triazin-2-yl]-2,3,4,9-tetrahydro-1H-pyrido[3,4-b]indole]", "pIC50": 8.66}, {"smiles": "Cc1ccc(C2c3[nH]c4ccc(F)cc4c3CCN2c2nc(C(F)(F)F)nc(C(F)(F)F)n2)c(F)c1F", "note": "(centres unmarked) [Compound 492, 2-[4,6-bis(trifluoromethyl)-1,3,5-triazin-2-yl]-1-(2,3-difluoro-4-methylphenyl)-6-fluoro-2,3,4,9-tetrahydro-1H-pyrido[3,4-b]indole]", "pIC50": 8.49}, {"smiles": "Cc1ccc(C2c3[nH]c4ccc(F)cc4c3CCN2c2nccc(C(F)(F)F)n2)c(F)c1F", "note": "(centres unmarked) [Compound 493, 1-(2,3-difluoro-4-methylphenyl)-6-fluoro-2-[4-(trifluoromethyl)pyrimidin-2-yl]-2,3,4,9-tetrahydro-1H-pyrido[3,4-b]indole]", "pIC50": 7.60}, {"smiles": "Cc1ccc(C2c3[nH]c4ccc(F)cc4c3CCN2c2ncnc(C(F)(F)F)n2)c(F)c1F", "note": "(centres unmarked) [Compound 494, 1-(2,3-difluoro-4-methylphenyl)-6-fluoro-2-[4-(trifluoromethyl)-1,3,5-triazin-2-yl]-2,3,4,9-tetrahydro-1H-pyrido[3,4-b]indole]", "pIC50": 7.92}, {"smiles": "CSc1nc(N2CCc3c([nH]c4ccc(F)cc34)C2c2ccc(C)c(F)c2F)nc(C(F)(F)F)n1", "note": "(centres unmarked) [Compound 495, 1-(2,3-difluoro-4-methylphenyl)-6-fluoro-2-[4-(methylsulfanyl)-6-(trifluoromethyl)-1,3,5-triazin-2-yl]-2,3,4,9-tetrahydro-1H-pyrido[3,4-b]indole]", "pIC50": 8.06}, {"smiles": "CC1(C)CN(c2ncc([C@H]3c4[nH]c5ccc(Cl)cc5c4CCN3c3nc(C(F)(F)F)cc(C(F)(F)F)n3)cn2)CCN1", "note": "[Compound 496, (1S)-2-[4,6-bis(trifluoromethyl)pyrimidin-2-yl]-6-chloro-1-[2-(3,3-dimethylpiperazin-1-yl)pyrimidin-5-yl]-2,3,4,9-tetrahydro-1H-pyrido[3,4-b]indole]", "pIC50": 8.55}, {"smiles": "Cc1ccc(C2c3[nH]c4ccc(Cl)cc4c3CCN2c2nc(C(F)(F)F)nc(C(F)(F)F)n2)c(F)c1F", "note": "(centres unmarked) [Compound 497, 2-[4,6-bis(trifluoromethyl)-1,3,5-triazin-2-yl]-6-chloro-1-(2,3-difluoro-4-methylphenyl)-2,3,4,9-tetrahydro-1H-pyrido[3,4-b]indole]", "pIC50": 9.70}, {"smiles": "FC(F)(F)c1ncnc(N2CCc3c([nH]c4ccc(-n5nccn5)cc34)[C@@H]2c2ccc(N3CCOCC3)nc2)n1", "note": "[Compound 498, (1S)-1-[6-(morpholin-4-yl)pyridin-3-yl]-6-(2H-1,2,3-triazol-2-yl)-2-[4-(trifluoromethyl)-1,3,5-triazin-2-yl]-2,3,4,9-tetrahydro-1H-pyrido[3,4-b]indole]", "pIC50": 9.15}, {"smiles": "CN1CCN(c2ncc([C@H]3c4[nH]c5ccc(Br)cc5c4CCN3c3nc(C(F)(F)F)cc(C(F)(F)F)n3)cn2)CC1", "note": "[Compound 499, (1S)-2-[4,6-bis(trifluoromethyl)pyrimidin-2-yl]-6-bromo-1-[2-(4-methylpiperazin-1-yl)pyrimidin-5-yl]-2,3,4,9-tetrahydro-1H-pyrido[3,4-b]indole]", "pIC50": 9.52}, {"smiles": "CN1CCN(c2ncc([C@H]3c4[nH]c5ccc(-n6nccn6)cc5c4CCN3c3nc(C(F)(F)F)cc(C(F)(F)F)n3)cn2)CC1", "note": "[Compound 500, (1S)-2-[4,6-bis(trifluoromethyl)pyrimidin-2-yl]-1-[2-(4-methylpiperazin-1-yl)pyrimidin-5-yl]-6-(2H-1,2,3-triazol-2-yl)-2,3,4,9-tetrahydro-1H-pyrido[3,4-b]indole]", "pIC50": 9.10}, {"smiles": "CN1CCN(c2ncc([C@H]3c4[nH]c5ccc(-n6nccn6)cc5c4CCN3c3nc(C(F)(F)F)nc(C(F)(F)F)n3)cn2)CC1", "note": "[Compound 501, (1S)-2-[4,6-bis(trifluoromethyl)-1,3,5-triazin-2-yl]-1-[2-(4-methylpiperazin-1-yl)pyrimidin-5-yl]-6-(2H-1,2,3-triazol-2-yl)-2,3,4,9-tetrahydro-1H-pyrido[3,4-b]indole]", "pIC50": 8.85}, {"smiles": "Cc1ccc(C2c3[nH]c4ccc(-n5nccn5)cc4c3CCN2c2nccc(C(F)(F)F)n2)c(F)c1F", "note": "(centres unmarked) [Compound 502, 1-(2,3-difluoro-4-methylphenyl)-6-(2H-1,2,3-triazol-2-yl)-2-[4-(trifluoromethyl)pyrimidin-2-yl]-2,3,4,9-tetrahydro-1H-pyrido[3,4-b]indole]", "pIC50": 8.68}, {"smiles": "C[C@@H]1CN(c2ncc([C@H]3c4[nH]c5ccc(Cl)cc5c4CCN3c3nc(C(F)(F)F)cc(C(F)(F)F)n3)cn2)C[C@H](C)N1", "note": "[Compound 503, (1S)-2-[4,6-bis(trifluoromethyl)pyrimidin-2-yl]-6-chloro-1-{2-[(3R,5S)-3,5-dimethylpiperazin-1-yl]pyrimidin-5-yl}-2,3,4,9-tetrahydro-1H-pyrido[3,4-b]indole]", "pIC50": 8.14}, {"smiles": "COC(=O)c1nc(N2CCc3c([nH]c4ccc(Cl)cc34)[C@@H]2c2ccc(C)c(F)c2F)nc(C(F)(F)F)n1", "note": "[Compound 504, methyl 4-[(1S)-6-chloro-1-(2,3-difluoro-4-methylphenyl)-1,3,4,9-tetrahydro-2H-pyrido[3,4-b]indol-2-yl]-6-(trifluoromethyl)-1,3,5-triazine-2-carboxylate]", "pIC50": 7.51}, {"smiles": "Cc1ccc([C@H]2c3[nH]c4ccc(Cl)cc4c3CCN2c2nc(C(F)(F)F)nc(C(Cl)(Cl)Cl)n2)c(F)c1F", "note": "[Compound 505, (1S)-6-chloro-1-(2,3-difluoro-4-methylphenyl)-2-[4-(trichloromethyl)-6-(trifluoromethyl)-1,3,5-triazin-2-yl]-2,3,4,9-tetrahydro-1H-pyrido[3,4-b]indole]", "pIC50": 8.82}, {"smiles": "CN1CCN(c2ncc([C@H]3c4[nH]c5ccc(-n6nccn6)cc5c4CCN3c3ncnc(C(F)(F)F)n3)cn2)CC1", "note": "[Compound 506, (1S)-1-[2-(4-methylpiperazin-1-yl)pyrimidin-5-yl]-6-(2H-1,2,3-triazol-2-yl)-2-[4-(trifluoromethyl)-1,3,5-triazin-2-yl]-2,3,4,9-tetrahydro-1H-pyrido[3,4-b]indole]", "pIC50": 8.24}, {"smiles": "FC(F)c1nc(N2CCc3c([nH]c4ccc(Cl)cc34)[C@@H]2c2cnc(N3CCOCC3)nc2)nc(C(F)(F)F)n1", "note": "[Compound 507, (1S)-6-chloro-2-[4-(difluoromethyl)-6-(trifluoromethyl)-1,3,5-triazin-2-yl]-1-[2-(morpholin-4-yl)pyrimidin-5-yl]-2,3,4,9-tetrahydro-1H-pyrido[3,4-b]indole]", "pIC50": 9.22}]}]}
